Reference: PubChem BioAssay AID179 (DTP/NCI, 2004)
“And” between values parts separate entries of the source, which are not always exact repeats. Equal values may be shown once. The source made the active and inactive calls.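 The calls were made as follows: active = compounds giving half or more protection of infected cells from virus-caused growth loss, again on retest; inactive = the rest.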 Where a SMILES comes first, the peptide text is derived from it. Bridges are numbered along the chain shown (N, C = ends). [ ]: non-standard residue; d: D form. Orn = NCCC[CH](N)C(=O)O

Tested on: CEM cells HIV-1 protection, formazan growth assay
Experiment: NCI AIDS Antiviral Assay
Settings: for IC50: measured here: growth of uninfected CEM cells
How it was run: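 Five concentrations of each compound were applied to infected and uninfected human CEM cells. Protection from HIV-1 was judged from growth measured with a soluble formazan assay.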

## COc1ccc2nc3n(c2c1)C(c1c(Cl)cccc1Cl)SC3 (centres undefined)
  EC50: > 200 µM
  IC50: > 200 µM

## O=C([CH-]C(=O)c1ccccc1)c1ccccc1.O=C([CH-]C(=O)c1ccccc1)c1ccccc1.[CH2-]CCC.[CH2-]CCC.[Sn+4]
  EC50: > 7.76 µM
  IC50: 0.427 µM

## O=C1/C(=C/c2ccc(Cl)cc2)Oc2cc(O)ccc21
  EC50: > 200 µM
  IC50: 37.2 µM

## CC12CCC(CC1(Cl)Cl)C2 (centres undefined)
  EC50: > 200 µM
  IC50: > 200 µM

## Nc1ccc(-c2nc3sc(-c4ccc(N)cc4)nc3s2)cc1
  EC50: > 16.2 µM
  IC50: > 16.2 µM

## CCOP(=O)(OCC)/C(C#N)=C\c1cccc2ccccc12
  EC50: > 83.2 µM
  IC50: > 83.2 µM

## NC(c1ccccc1)(C(F)(F)F)P1(=O)OC(=O)c2ccccc2O1 (centres undefined)
  EC50: > 200 µM
  IC50: > 200 µM

## COc1ccc(/C=N/NC(N)=O)cc1
  EC50: > 186 µM
  IC50: > 186 µM

## C[C@H](CCC(=O)O)[C@H]1CC[C@H]2[C@@H]3[C@@H](O)C[C@@H]4C[C@H](O)CC[C@]4(C)[C@H]3C[C@H](O)[C@]12C
  EC50: > 200 µM
  IC50: > 200 µM

## COc1ccc(/C=C2/SC(c3ccccc3)N(NC(=O)CCCCCCCCC(=O)NN3C(=O)/C(=C\c4ccc(OC)c(OC)c4)SC3c3ccccc3)C2=O)cc1OC (centres undefined)
  EC50: > 200 µM
  IC50: 91.2 µM

## COc1ccc2cc(C(=O)NCCCNC(=O)c3ccc4cc(OC)ccc4c3)ccc2c1
  outcome: inactive

## CCCCCCCCCCCCSCC12c3ccccc3C(c3ccccc31)C(C(=O)O)C2C(=O)O (centres undefined)
  EC50: > 200 µM
  IC50: 22.4 µM

## Cc1ccc(C2NC(=S)N3C(c4ccc(C)cc4)NC(=S)N23)cc1 (centres undefined)
  EC50: > 200 µM
  IC50: 3.39 µM

## C=CCN1C(=O)CS/C1=N\NC(=O)Cc1nc2ccccc2[nH]1
  EC50: > 275 µM
  IC50: > 275 µM

## CCOC(=O)C(Cc1cn(C(C)=O)c2ccccc12)P(=O)(OCC)OCC (centres undefined)
  EC50: > 200 µM
  IC50: > 200 µM

## O=C1NC(=O)C23C(=O)NC(=O)C12C1C=CC3CC1 (centres undefined)
  EC50: > 200 µM
  IC50: > 200 µM

## Cc1nc2ccc(NC3OCC(O)C(O)C3O)cc2c(=O)n1-c1ccccc1 (centres undefined)
  EC50: > 200 µM
  IC50: 115 µM

## O=C(NO)c1ccc(OCc2cccc(Cl)c2)cc1
  EC50: > 200 µM
  IC50: 10 µM

## O=S1(=O)OCCOS(=O)(=O)C1(Br)Br
  EC50: > 363 µM
  IC50: > 363 µM

## CC1(C)C2CCC1(C)C(NC(=O)COCCOCC(N)=O)C2 (centres undefined)
  EC50: > 83.2 µM
  IC50: 41.7 µM

## O=Nc1c(-c2ccccc2)nc2ccccn12
  EC50: > 200 µM
  IC50: 38.9 µM

## O=C(/C=C/c1ccccc1)CCc1c(O)c2ccccc2oc1=O
  EC50: > 112 µM
  IC50: 97.7 µM

## O=C1C(c2ccc(Br)cc2)=[N+]([O-])c2ccccc21
  outcome: inactive

## CO[C@H]1C=CO[C@@]2(C)Oc3c(C)c(O)c4c(O)c(c(CN5CCN(C)CC5)c(O)c4c3C2=O)NC(=O)/C(C)=C\C=C[C@H](C)[C@H](O)C(C)[C@@H](O)C(C)[C@H](OC(C)=O)[C@@H]1C (some centres undefined)
  outcome: inactive

## CC1(C2(C)OC(=O)c3ccccc32)OC(=O)c2ccccc21 (centres undefined)
  EC50: > 200 µM
  IC50: > 200 µM

## N#Cc1c(NC(=S)Nc2ccc(Cl)cc2)sc2c1CCCC2
  EC50: > 200 µM
  IC50: > 200 µM

## O=C(c1ccco1)n1c2ccc(Br)cc2c2nc3ccccc3nc21
  EC50: > 50.1 µM
  IC50: 22.4 µM

## C=C1C2CC[C@@H]3C(C2)(C(=O)C(O)[C@@H]2C(C)(C)[C@@H]4CC(=O)C32CO4)C1OC(C)=O (some centres undefined)
  EC50: > 646 µM
  IC50: 8.13 µM

## CCN1CCC(O)(/C=C/c2ccc(Cl)c(Cl)c2)C(C(=O)/C=C/c2ccc(Cl)c(Cl)c2)C1 (centres undefined)
  EC50: > 25.1 µM
  IC50: 0.513 µM

## c1ccc2c(c1)C1=NCCN1c1ccccc1-2
  EC50: > 309 µM
  IC50: 1.86 µM

## NS(=O)(=O)c1ccc(NC(=O)c2cccc3c(Nc4ccc(S(N)(=O)=O)cc4)c4ccccc4nc23)cc1
  EC50: > 34.7 µM
  IC50: 26.3 µM

## CC1(C)OC2OC(C(COC(=O)c3ccccc3)OC(=O)c3ccccc3)C(F)C2O1 (centres undefined)
  EC50: > 43.7 µM
  IC50: > 43.7 µM

## O=S(Nc1ccccc1)c1ccc(Cl)cc1 (centres undefined)
  EC50: > 200 µM
  IC50: 81.3 µM

## CC=CCOc1cc(NC(=S)OC(C)C)ccc1Cl (mixture of isomers)
  EC50: 0.126 µM
  IC50: 24 µM

## CSc1nc(SC)c(Nc2cccc(C)c2)c(SC)n1
  EC50: > 200 µM
  IC50: 3.47 µM

## CCOc1ccc(NC(=O)C(=O)C(/C(=N/N)C(=O)OC)c2nc3ccc([N+](=O)[O-])cc3[nH]c2=O)cc1 (centres undefined)
  EC50: > 14.5 µM
  IC50: > 14.5 µM

## O=C(N=Nc1c(O)[nH]c2ccccc12)C(O)(c1ccccc1)c1ccccc1
  EC50: > 200 µM
  IC50: 39.8 µM

## CCCCCCCN=c1ssc(=O)n1CCCCCCC
  EC50: > 200 µM
  IC50: 8.91 µM

## NC(=O)C1CC(=O)NCCCC(NC(=O)C(N)Cc2ccc(O)cc2)C(=O)NC(Cc2ccccc2)C(=O)N1 (centres undefined) (H-Y[Orn]FD-NH2; lactam 2-4; configuration not given here)
  EC50: > 100 µM
  IC50: > 100 µM

## COc1ccc(-c2cc[n+]([O-])c(C)c2C)c(OC)c1OC
  EC50: > 871 µM
  IC50: 83.2 µM

## C=CC1(O)CCCC=C1COCc1ccccc1 (centres undefined)
  EC50: > 200 µM
  IC50: 33.1 µM

## COc1cc2c(c(O)c1OC)C(=O)C1CCC(=O)N1C2c1cccc2ccccc12 (centres undefined)
  EC50: > 200 µM
  IC50: 31.6 µM

## Cn1cncc1CC1COC(=O)C1C(O)c1ccccc1 (centres undefined)
  EC50: > 200 µM
  IC50: > 200 µM

## Cc1nn2c(nnn2CCO)c1-c1ccccc1
  EC50: > 1020 µM
  IC50: 407 µM

## O=C1NC(=S)N/C1=C\c1ccc(Sc2ccccc2C(=O)O)s1
  EC50: > 200 µM
  IC50: 110 µM

## Cc1cc(NS(=O)(=O)c2ccc(N=Nc3cc(N=Nc4ccc(S(=O)(=O)Nc5cc(C)nc(C)n5)cc4)c4c(NC(=O)C(Cl)Cl)cccc4c3OC(=O)C(Cl)Cl)cc2)nc(C)n1 (tested in a mixture with another compound)
  outcome: inactive

## O=C(NC1CCCCC1)/C(=C\c1ccccc1)NC(=O)c1ccccc1
  EC50: > 200 µM
  IC50: > 200 µM

## Cc1nc([N+](=O)[O-])cn1CC(=N)N
  EC50: > 1120 µM
  IC50: > 1120 µM

## c1cc[c]([Pb]([c]2ccccc2)[c]2ccccc2)cc1
  outcome: inactive

## CS(=O)(=O)c1nc2nc[nH]c2c(=O)[nH]1
  EC50: > 200 µM
  IC50: > 200 µM

## CN1CN(C(=O)N2CN(C)C(=O)N(C)C2)CN(C)C1=O
  EC50: > 158 µM
  IC50: > 158 µM

## O=C1/C(=C\c2ccc([N+](=O)[O-])cc2)Sc2scc(-c3ccc(O)c(O)c3)[n+]21
  EC50: > 200 µM
  IC50: 5.25 µM

## Nc1ncnc2c1ncn2C1OC(COC2C(O)C(OC3OC(CO)C(O)C(O)C3N)C(O)C(OS(=O)(=O)O)C2OC(=O)[C@@H](N)CO)C(O)C1O (some centres undefined)
  EC50: > 200 µM
  IC50: > 200 µM

## O=c1cc2n(c(=O)[nH]1)C1OC(C(O)C1O)[C@H]2CCO (some centres undefined)
  outcome: inactive

## CC(=O)Oc1ccc(C)c2c1[C@H]1CC[C@]3(C)[C@@H](OC(C)=O)CC[C@H]3[C@@H]1CC2
  EC50: > 200 µM
  IC50: 32.4 µM

## Oc1cc2cc(-c3ccccc3)[nH]c2c2ccccc12
  EC50: > 200 µM
  IC50: 31.6 µM

## COc1ccc(C2NC3=C(CCCC3)N2)cc1
  EC50: > 155 µM
  IC50: 26.3 µM

## [N-]=[N+]=CC(=O)C1(C(=O)C=[N+]=[N-])CC1
  EC50: > 251 µM
  IC50: 240 µM

## NC(CCSSCCC(N)C(=O)NCC(=O)O)C(=O)NCC(=O)O (centres undefined)
  EC50: > 64.6 µM
  IC50: > 64.6 µM

## O=C(NC1C2CC3CC(C2)CC1C3)/C(Cl)=C1/Sc2ccccc2NC1=O (centres undefined)
  EC50: > 5.13 µM
  IC50: > 5.13 µM

## N#Cc1cccc(N2C(=O)c3c(c(-c4ccccc4)c(-c4ccc(Sc5ccc(-c6c(-c7ccccc7)c7c(c(-c8ccccc8)c6-c6ccccc6)C(=O)N(c6cccc(C#N)c6)C7=O)cc5)cc4)c(-c4ccccc4)c3-c3ccccc3)C2=O)c1
  EC50: > 12 µM
  IC50: > 12 µM

## C=C(CS(=O)(=O)c1ccccc1)C(=O)OCC
  outcome: inactive

## CCCCCCSCC/C(C)=N\OC
  EC50: > 200 µM
  IC50: > 200 µM

## O=C1NC(=O)C2C1N(Cc1ccccc1)C(=O)N2Cc1ccccc1 (centres undefined)
  EC50: > 107 µM
  IC50: > 107 µM

## COc1cc([C@@H]2c3cc(O)c(OC)cc3C=C(C(N)=O)[C@H]2C(N)=O)ccc1O
  EC50: > 0.2 µM
  IC50: 0.0102 µM

## Cn1c2ccccc2n2c(=O)c3cc([N+](=O)[O-])ccc3c(C#N)c12
  EC50: > 100 µM
  IC50: > 100 µM

## O=C(O/N=C1/CCC/C1=C\c1ccccc1)c1ccc([N+](=O)[O-])cc1
  outcome: inactive

## CN1C(=O)C2CSCN2C1=S (centres undefined)
  EC50: > 955 µM
  IC50: 316 µM

## C=CCNC(=S)OCCCCCCCCCC
  outcome: inactive

## CO/C(=N\N=C\c1ccccc1F)c1ccncc1
  EC50: > 141 µM
  IC50: > 141 µM

## CCOC(F)(F)/C=C/c1ccccc1
  outcome: inactive

## CC(C)=CC[P+](CCC[P+](CC=C(C)C)(c1ccccc1)c1ccccc1)(c1ccccc1)c1ccccc1
  EC50: > 57.5 µM
  IC50: > 57.5 µM

## CC(C)(N=NC(C)(C)C1=NCCN1)C1=NCCN1
  EC50: > 200 µM
  IC50: 105 µM and 83.2 µM

## O=C1N[C@H]2CCCC[C@@H]2C(=O)N1OS(=O)(=O)c1ccccc1
  EC50: > 200 µM
  IC50: > 200 µM

## COc1ccc(C(=O)C(c2ccc(OC)cc2)C2OC(=O)C(Cl)=C2Cl)cc1 (centres undefined)
  EC50: > 17.8 µM
  IC50: > 17.8 µM

## ClC1OC(Cl)(Cl)C(Cl)(Cl)OC1(Cl)Cl (centres undefined)
  outcome: inactive

## COc1cc(CC2c3cc(OC)c(OC)cc3CCN2C)ccc1O (centres undefined)
  EC50: > 380 µM
  IC50: 138 µM

## C[C@@]1(CI)OC(=O)N2CCC[C@H]21
  EC50: > 891 µM
  IC50: > 891 µM

## Cc1c2ccccc2nc(CSCC(O)CO)[n+]1[O-] (centres undefined)
  EC50: > 200 µM
  IC50: > 200 µM

## Cc1cn(C2CC(N=[N+]=[N-])C(COC(=O)C(O)[C@@]3(O)CC[C@H]4[C@@H]5CCC6=CC(=O)C=C[C@]6(C)[C@H]5[C@@H](O)C[C@@]43C)O2)c(=O)[nH]c1=O (some centres undefined)
  EC50: 0.708 µM
  IC50: > 200 µM

## COc1cc2c3cc1Oc1c(OC)c(OC)cc4c1[C@@H](Cc1ccc(O)c(c1)Oc1ccc(cc1)C[C@@H]3N(C)CC2)N(C)CC4
  outcome: inactive

## Cn1c(/C=N/NC(=O)c2ccc(C(=O)N/N=C/c3c[n+]4ccccc4n3C)cc2)c[n+]2ccccc12
  EC50: 35.5 µM
  IC50: 43.7 µM

## CC(=O)OCC1OC(n2c(-c3ccccc3)c(C(C)=O)c(-c3cccc4ccccc34)c(C#N)c2=S)C(OC(C)=O)C(OC(C)=O)C1OC(C)=O (centres undefined)
  EC50: > 200 µM
  IC50: 85.1 µM and 117 µM
